Laboratory results published in patent US20080286282A1, “Novel Use of Sulfonamide Compound in Combination with Angiogenesis Inhibitor” (Eisai R & D Management Co., Ltd., priority 2005, published 2008).
Like-named read-outs stand apart in the source and are kept apart here.

Assays:
HCT116-C9 = test: Cell growth inhibition assay (MTT, 72 h) on HCT116-C9; format: cell-based; details: Homo sapiens
Procedure: (§1) An E7070-resistant cell line was used to assess the antiproliferative activities of E7820, LY186641, LY295501, LY-ASAP and CQS. HCT116-C9 was a substrain separated from human colon cancer-derived HCT116 (American Type Culture Collection, Manassas, Va., U.S.A.). This HCT116-C9 was cultured in the presence of E7070 while increasing the E7070 concentration by degrees, thereby obtaining E7070-resistant substrains HCT116-C9-C1 and HCT116-C9-C4 (Molecular Cancer Therapeutics, 2002, 1, 275-286).
(§2) Three cell lines, i.e., HCT116-C9, HCT116-C9-C1 and HCT116-C9-C4, were each seeded at 3000 cells/well onto a 96-well microplate (flat bottom) (50 μl/well). Twenty-four hours later, they were added with a 3-fold dilution series of each compound (50 μl/well). Seventy-two hours later, the antiproliferative activities were assessed by MTT method (Mossmann T., J. Immunol. Methods, 1983, 65, 55-63). The 50% growth inhibitory concentrations to the cancer cells were obtained by a least square method.
(§3) In exactly the same manner as in Example 6, an E7070-resistant cell line was used to assess the antiproliferative activities of LY573636 as well as those of E7070.

HCT116-C9-C4 = test: Cell growth inhibition assay (MTT, 72 h) on E7070-resistant HCT116-C9-C4; format: cell-based; details: Homo sapiens
Procedure: as §1, §2, §3

HCT116-C9-C1 = test: Cell growth inhibition assay (MTT, 72 h) on E7070-resistant HCT116-C9-C1; format: cell-based; details: Homo sapiens
Procedure: as §1, §2, §3

[1] = test system: human colon cancer cell line (Colo320DM); test: Subcutaneous transplant model of human colon cancer cell line Colo320DM, E7070 and Bevacizumab (Example 8); format: in vivo; details: Colo320DM s.c. in nude mouse, E7070 40 mg/kg i.v. Days 1 to 5, Bevacizumab 25 mg/kg i.v. Days 1, 5, 8 and 12; for Relative Tumor Volume (RTV) Average ± standard deviation: Day 23
Procedure: (§4) Human colon cancer cell line Colo320DM (purchased from ATCC) was cultured in RPMI1640 (containing 10% FBS) in a 5% carbon dioxide incubator to about 80% confluence, and the cells were collected with trypsin-EDTA. Using Hanks balanced solution, 5×10^7 cells/mL suspension was prepared, and 0.1 mL each of the resulting cell suspension was subcutaneously transplanted to a nude mouse at the side of its body.
Following transplantation, E7070 (40 mg/kg/day) and Bevacizumab (25 mg/kg/day) were administered alone or in combination when the average tumor volume became 259 mm^3.
E7070 alone was intravenously administered once a day for 5 days (on Days 1 to 5). On the other hand, Bevacizumab alone was intravenously administered twice a week for 2 weeks (on Days 1, 5, 8 and 12).
For the combinational use group, E7070 was intravenously administered on Days 1 to 5 while Bevacizumab was intravenously administered on Days 1, 5, 8 and 12.
The major and minor axes of tumors were measured twice a week from the initiation of administration with Digimatic caliper (Mitsutoyo), and tumor volumes were calculated according to the following formula.
(§5) Tumor Volume TV=Major axis of tumor (mm)×(Minor axis of tumor)^2 (mm^2)/2
The following two values were used for judging an anti-tumor effect.
Tx4: time (days) required for the tumor to grow to four times the initial tumor volume
RTV: Relative tumor volume (RTV)* on Day 23
*RTV=Tumor volume on Day 23/Initial tumor volume on Day 1

[2] = test system: human renal cancer cell line (786-O); test: Subcutaneous transplant model of human renal cancer cell line 786-O, E7820 and Bevacizumab (Example 9); format: in vivo; details: 786-O s.c. in nude mouse; E7820 200 mg/kg twice a day orally 2 weeks; Bevacizumab 25 mg/kg twice a week i.v. 2 weeks
Procedure: as §4, with “renal” for “colon”, “786-0 (obtained” for “Colo320DM (purchased”, “incubator at 37° C.” for “incubator”, “a phosphate buffer containing 50% matrigel, 1×10^8” for “Hanks balanced solution, 5×10^7”
Seven days after the transplantation, E7820 and Bevacizumab were administered alone or in combination. E7820 was orally administered at 200 mg/kg twice a day for 2 weeks while Bevacizumab was intravenously administered at 25 mg/kg twice a week for 2 weeks.
The major and minor axes of tumors were measured with Digimatic caliper (Mitsutoyo), and tumor volumes and relative tumor volumes were calculated according to the following formulae.
as §5
(§6) Relative Tumor Volume RTV=Tumor volume on measurement day/Tumor volume on the first administration day

[3] = test system: human colon cancer cell line (Colo320DM); test: Subcutaneous transplant model of human colon cancer cell line Colo320DM, E7820 and Bevacizumab (Example 2); format: in vivo; details: Colo320DM s.c. in nude mouse; E7820 200 mg/kg twice a day orally 3 weeks; Bevacizumab 25 mg/kg twice a week i.v. 3 weeks
Procedure: Human colon cancer cell line Colo320DM (purchased from Dainippon Pharmaceutical) was cultured in RPMI1640 (containing 10% FBS) in a 5% carbon dioxide incubator at 37° C. to about 80% confluence, and the cells were collected with trypsin-EDTA. Using a phosphate buffer containing 50% matrigel, 5×10^7 cells/mL suspension was prepared, and 0.1 mL each of the resulting cell suspension was subcutaneously transplanted to a nude mouse at the side of its body. Seven days after the transplantation, administration of E7820 (200 mg/kg, twice a day, for 3 weeks, orally administered) and administration of Bevacizumab (25 mg/kg, twice a week, for 3 weeks, intravenously administered) were initiated. The major and minor axes of tumors were measured with Digimatic caliper (Mitsutoyo), and tumor volumes and relative tumor volumes were calculated according to the following formulae.
as §5, §6

[4] = Example 6, read-out: antiproliferative activity, IC50
[5] = Example 7, read-out: antiproliferative activity, IC50

Molecule | IC50 (HCT116-C9; [4]) [µM] | IC50 (HCT116-C9-C4; [4]) [µM] | IC50 (HCT116-C9-C1; [4]) [µM] | Tx4 Average ± standard deviation (time required for the tumor to grow to four times the initial tumor volume) [1] [days] | Relative Tumor Volume (RTV) Average ± standard deviation [1] | IC50 (HCT116-C9-C4; [5]) [µM] | IC50 (HCT116-C9-C1; [5]) [µM] | Relative tumor volume on Day 22 Average ± standard deviation [2] | Relative tumor volume on Day 22 Average ± standard deviation [3] | IC50 (HCT116-C9; [5]) [µM]
Nc1ccc(S(=O)(=O)Nc2cnc3c(Cl)cccc3n2)cc1 [CQS, 2-sulfanylamide-5-chloroquinoxaline] | 1.73 | 517 | 634 | – | – | – | – | – | – | –
NS(=O)(=O)c1ccc(S(=O)(=O)Nc2cccc3c(Cl)c[nH]c23)cc1 [E7070, N-(3-chloro-1H-indole-7-yl)-4-sulfamoylbenzenesulfonamide] | 0.127 | 26.9 | 31.9 | 27.0 ± 3.4 | 2.70 ± 0.97 | 28 | 32.7 | – | – | –
Cc1ccc(NS(=O)(=O)c2cccc(C#N)c2)c2[nH]cc(C#N)c12 [E7820, N-(3-cyano-4-methyl-1H-indole-7-yl)-3-cyanobenzenesulfonamide] | 0.08 | 52.8 | 51.2 | – | – | – | – | 0.6 ± 0.1 | 6.1 ± 1.8 | –
O=C(Nc1ccc(Cl)cc1)NS(=O)(=O)c1ccc2c(c1)CCC2 [LY186641, N-[[(4-chlorophenyl)amino]carbonyl]-2,3-dihydro-1H-indene-5-sulfonamide] | 33.6 | 138 | 134 | – | – | – | – | – | – | –
O=C(Nc1ccc(Cl)c(Cl)c1)NS(=O)(=O)c1ccc2c(c1)CCO2 [LY295501, N-[[(3,4-dichlorophenyl)amino]carbonyl]-2,3-dihydrobenzofuran-5-sulfonamide] | 10.9 | 110 | 111 | – | – | – | – | – | – | –
O=C(NS(=O)(=O)c1ccc(Br)s1)c1ccc(Cl)cc1Cl [LY573636, N-(2,4-dichlorobenzoyl)-5-bromothiophene-2-sulfonamide] | – | – | – | – | – | 240 | 264 | – | – | 5.11
O=C(NS(=O)(=O)c1ccc(Cl)cc1)c1ccc(Cl)cc1Cl [LY-ASAP, N-(2,4-dichlorobenzoyl)-4-chlorophenylsulfonamide] | 1.63 | 90.3 | 113 | – | – | – | – | – | – | –
Bevacizumab: human anti-VEGF (Vascular Endothelial Growth Factor) monoclonal antibody, obtained by purchasing Avastin from Genentech | – | – | – | 26.3 ± 2.8 | 2.84 ± 0.68 | – | – | 1.8 ± 0.2 | 5.1 ± 0.8 | –
